The source of these data is ChEMBL document CHEMBL1154056, “Synthesis, characterization, antimicrobial and antitumor screening of some diorganotin(IV) complexes of 2-[(9H-Purin-6-ylimino)]-phenol” (Eur J Med Chem, 2009).

Each structure is given as a SMILES string. Values after ≈ are worked out from the molar mass of the structure shown.

The test system of one experiment is Staphylococcus aureus. Nature of the experiment: Antibacterial activity against Staphylococcus aureus. The experiment is classed as functional.
In experiment [1] the test system is Bacillus subtilis. Put plainly: Antibacterial activity against Bacillus subtilis. The experiment is classed as functional.
Experiment [2] relates to Escherichia coli. Nature of the experiment: Antibacterial activity against Escherichia coli. The experiment is classed as functional.
The test system of experiment [3] is Aspergillus flavus. Nature of the experiment: Antifungal activity against Aspergillus flavus at 50 mg after 72 hrs by dilution plate method. Conditions: read-out: IZ. The experiment is classed as functional.
The test system of experiment [4] is Bacillus subtilis. Nature of the experiment: Antibacterial activity against Bacillus subtilis at 2 mg by agar well diffusion assay relative to imipenem. Format: functional. A general note: Agar diffusion results depend on both activity and mobility in agar.
The test system of experiment [5] is Salmonella typhi. Put plainly: Antibacterial activity against Salmonella typhi. Format: functional, Salmonella enterica subsp. enterica serovar Typhi. Conditions: Salmonella enterica.
The next experiment concerns Aspergillus niger. Nature of the experiment: Antifungal activity against Aspergillus niger assessed as growth inhibition at 50 mg after 72 hrs dilution plate method. The experiment is classed as functional.
The test system of experiment [6] is Escherichia coli. Put plainly: Antibacterial activity against Escherichia coli at 2 mg by agar well diffusion assay relative to imipenem. Format: functional.
Experiment [7] has as its system Aspergillus flavus. Put plainly: Antifungal activity against Aspergillus flavus assessed as growth inhibition at 50 mg after 72 hrs by dilution plate method. Format: functional.
For another experiment, the system named is Pseudomonas aeruginosa. Put plainly: Antibacterial activity against Pseudomonas aeruginosa. The experiment is classed as functional.
Experiment [8] has as its system Salmonella typhi. Nature of the experiment: Antibacterial activity against Salmonella typhi at 2 mg by agar well diffusion assay relative to imipenem. Format: functional, Salmonella enterica subsp. enterica serovar Typhi.
A further experiment has as its system Fusarium oxysporum. Nature of the experiment: Antifungal activity against Fusarium oxysporum assessed as growth inhibition at 50 mg after 72 hrs by dilution plate method. Format: functional.

On to `OC1=CC=CC/C1=N\c1ncnc2[nH]cnc12`, for which the MIC against Staphylococcus aureus came out at 128 µg/mL (≈ 563 µM); in the experiment on Bacillus subtilis [1], 128 µg/mL (≈ 563 µM); with Escherichia coli [2] it was 64 µg/mL (≈ 282 µM); in the experiment with Salmonella typhi [5] it was 64 µg/mL (≈ 282 µM); in the experiment with Pseudomonas aeruginosa it was 64 µg/mL (≈ 282 µM). In addition, in the experiment on Aspergillus flavus [3], the zone of inhibition at 50000 µg/disc worked out at 8 mm. Further, the “inhibition (INH)” value turned out to be 30% with Bacillus subtilis [4]; 8% with Aspergillus niger; 10% in the experiment on Escherichia coli [6]; 10% with Aspergillus flavus [7]; 10% in the experiment on Salmonella typhi [8]; 12% in the experiment on Fusarium oxysporum.

Usually MIC stands for the lowest concentration found to suppress growth. A high value points to weaker potency.
